This is an account of results in patent US11598051B2, “Method for manufacturing a fibrous web” (Kemira Oyj, priority 2017, dated 2023).

The test system of experiment [1] is Total aerobic bacteria (authentic bacterial population of a broke sample). In words: Example 1 laboratory broke test: total aerobic bacteria by agar plate cultivation. The experiment is classed as cell-based. The note with it: for Total aerobic bacteria: 10 mg/l as total active chlorine, +45° C. As to the method:
(§1) This laboratory test compared efficacy of two oxidizing biocides, namely free active chlorine and stabilized active chlorine, in killing of vegetative bacterial cells and in controlling of bacterial spore formation. Test was performed with authentic bacterial population of a broke sample taken from couch pit of a board machine making 3-ply food-packaging board. Broke sample was divided in equal proportions. Two reference samples were stored as such, the “free active chlorine” sample was treated with sodium hypochlorite, and the “stabilized active chlorine” sample was treated with sodium hypochlorite stabilized by 5,5-dimethylhydantoin (mixed in 1:1 molar ratio to form monochloro-5,5-dimethylhydantoin, MCDMH). Both forms of active chlorine were dosed at 10 ppm (=mg/l as total active chlorine Cl2). Broke samples were stored at +45° C. without mixing. Total aerobic bacteria and aerobic bacterial spores were quantified by using conventional agar plate cultivation methods (Plate Count Agar, incubation at +37° C. for 2 days) at the beginning of the test (untreated reference samples) and after 1 and 2 days of contact time. Broke pH and Redox (mV) values were also monitored.

Experiment [2] relates to aerobic bacterial spores. In words: Example 1 laboratory broke test: aerobic bacterial spores by agar plate cultivation. The experiment is classed as cell-based, bacteria. The settings on record: for Bacterial spores: 10 mg/l as total active chlorine, +45° C. As to the method: as §1
Experiment [3] concerns aerobic bacterial spores. The experiment can be described thus: Example 3 board machine biocide programs: aerobic bacterial spores from process locations. On the set-up: species or system bacteria. The note with it: for ΔSpore content within the broke system: difference between inlet and outlet. The source says: (§2) This example compares technical performance of two different biocide programs in the broke system of a 3-ply board machine producing food-packaging board. Broke system is a part of the wet-end of the board making process. This board machine has set a hygiene target for the final board that it should contain aerobic bacterial spores less than 1000 CFU, and preferably less than 250 CFU, per gram of dry board.
(§3) In this experiment, for the first period (Days 1-10) the machine was running a biocide program consisting of stabilized active chlorine (MCDMH) and glutaraldehyde. For the second period, the machine was running chlorine dioxide, a non-stabilized oxidizer, as the biocide. It was running for 10 days starting from a shutdown (Days 15-25). Third period (Days 26-47) was run with the same MCDMH and glutaraldehyde program as the first period. During this experiment technical performance of the two different biocide programs was monitored at selected dates by several means: on-line Redox monitoring system collecting Redox values at every 10 minutes (results are shown as daily average mV values); measuring aerobic spore content of the final board samples; and by measuring aerobic bacterial spore quantities from different process locations by using agar plate cultivation methods (pasteurization at 82° C. for 20 min, followed by cultivation on Plate Count Agar for 2 days at +37° C.).

Experiment [4] relates to aerobic bacterial spores. In words: Example 3 board machine biocide programs: aerobic spore content of final board. On the set-up: species or system bacteria.
Text: as §2, §3

Experiment [5] relates to Total aerobic bacteria (mill's authentic bacterial population). In words: Example 2 laboratory broke storage test: total aerobic bacteria by agar plate cultivation. The experiment is classed as cell-based. As to the method: (§4) This laboratory test was performed with broke sample taken from an alkaline board machine producing 3-ply food-packaging board and the sample included the mill's authentic bacterial population in it. The sample was divided in two different containers, one stored as such and the second one amended with biocide, 50 mg/l of glutaraldehyde as active agent. Containers were closed and stored at +45° C. without mixing i.e. under conditions that simulate situation in broke storage tower during a machine shutdown. Total aerobic bacteria and aerobic spore contents were determined by using conventional agar plate cultivation methods (plate count agar, 2 days incubation at +37° C.) at the beginning of the test and after 3 days of storage time, along with pH and redox measurements.

Another experiment deals with aerobic spores. The experiment can be described thus: Example 2 laboratory broke storage test: aerobic spore content by agar plate cultivation. The format is cell-based, bacteria. How it is done:
as §4

[6] abbreviates: Day 15, second period (Days 15-25).
Where [7] appears, read: Day 19, second period (Days 15-25).
[8] abbreviates: Day 25, second period (Days 15-25).
Setting [9] is: broke, 50 mg/l as active agent, +45° C., closed, after 3 days storage time.

As for `CC1(C)NC(=O)N(Cl)C1=O` [MCDMH, monochloro-5,5-dimethylhydantoin], the “stronger reduction of total aerobic bacteria content compared to free chlorine” value in experiment [1] (10 mg/l as active chlorine, after 1 day of storage) turned out to be 1 log unit. The Total aerobic bacteria was 6×10^4 CFU/ml in experiment [1] (broke, 1 days storage time) and 2 × 10^7 CFU/ml in experiment [1] (broke, 2 days storage time). Further, the “spore formation in the broke” value with aerobic bacterial spores [2] (10 mg/l as active chlorine, 2 days experiment) is “did not cause any new spore formation”. Further, the spore counts in the experiment with aerobic bacterial spores [2] (10 mg/l as active chlorine, during the 2 days experiment) is 30-60 CPU/ml. For the same molecule, the values for the Bacterial spores with aerobic bacterial spores [2] (1 days storage time) and in the experiment on aerobic bacterial spores [2] (2 days storage time) were 30 CFU/ml and 60 CFU/ml, respectively. For the same molecule, the “spores in incoming pulp” value with aerobic bacterial spores [3] (first period (Days 1-10)) is listed as 30-80 CFU/ml. The “spores in pulp transportation water” value in the experiment on aerobic bacterial spores [3] (first period (Days 1-10)) came out at 15 CFU/ml.
In the case of `[Na+].[O-]Cl` [Na-hypochlorite, sodium hypochlorite], the Total aerobic bacteria in experiment [1] (broke, 1 days storage time) is 4 × 10^5 CFU/ml; in experiment [1] (broke, 2 days storage time) it was 2 × 10^7 CFU/ml. In experiment [1] (broke, 10 ppm dosing level), the “killing effect” value is “did not demonstrate any longer-term killing effect”. Also, in experiment [1] (broke, 10 ppm, after 1 day of storage), the “total aerobic bacteria content” value is given as 4×10^5 CPU/ml. For the same molecule, the Bacterial spores with aerobic bacterial spores [2] (1 days storage time) was determined as 60 CFU/ml; with aerobic bacterial spores [2] (2 days storage time), 670 CFU/ml. The “increase in the quantity of aerobic spores” value with aerobic bacterial spores [2] (10 ppm, 1 day to 2 days storage (60 to 670 CFU/ml)) is recorded as 10 fold.
For `[O][Cl+][O-]` [chlorine dioxide], the “Aerobic Bacterial Spores in process, High consistency (4-6 w/w-%) broke tower” value in the experiment on aerobic bacterial spores [3] (setting [6]) is given as 440 CFU/ml; with aerobic bacterial spores [3] (setting [7]), 1100 CFU/ml; in the experiment with aerobic bacterial spores [3] (setting [8]), 950 CFU/ml. Besides, the “Aerobic Bacterial Spores in process, Incoming Pulp” value was determined as 20 CFU/ml in the experiment on aerobic bacterial spores [3] (setting [6]) and 60 CFU/ml in the experiment on aerobic bacterial spores [3] (setting [7]). The “Aerobic Bacterial Spores in process, Low consistency (1-4 w/w-%) broke tower” value in the experiment on aerobic bacterial spores [3] (setting [6]) came out at 250 CFU/ml; in the experiment on aerobic bacterial spores [3] (setting [7]), 610 CFU/ml; in the experiment with aerobic bacterial spores [3] (setting [8]), 850 CFU/ml. The “ΔSpore content within the broke system” value is reported as “+190 CFU/ml” with aerobic bacterial spores [3] (Day 15, second period); “+490 CFU/ml” with aerobic bacterial spores [3] (Day 19, second period); “+100 CFU/ml” in the experiment on aerobic bacterial spores [3] (Day 25, second period). Besides, the “spore formation in the broke system” value in the experiment with aerobic bacterial spores [3] (second period (Days 15-25)) is “triggered intensive spore formation”. In addition, the “spore quantities in the high consistency broke tower” value in the experiment on aerobic bacterial spores [3] (second period (Days 15-25), maximum) is “up to 1100 CFU/ml”. Also, the “Bacterial Spores in Final Board” value stood at 520 CFU/g in the experiment with aerobic bacterial spores [4] (setting [6]); 5530 CFU/g in the experiment with aerobic bacterial spores [4] (setting [7]); 9580 CFU/g in the experiment with aerobic bacterial spores [4] (Day 21, second period (Days 15-25)); 3210 CFU/g with aerobic bacterial spores [4] (setting [8]). In the experiment on aerobic bacterial spores [4] (second period (Days 15-25)), the “spore content in the final board, highest value” is listed as ≤ 9580 CFU/g.
For `O=CCCCC=O` [glutaraldehyde], the “killing effect” value in experiment [5] (50 mg/l, 3 days of storage) is on record as “did not have a long-lasting killing effect”. In addition, the “total aerobic bacteria relative to the untreated reference” value in experiment [5] (50 mg/l, after 3 days of storage) was determined as 40%. For the same molecule, in experiment [5] (setting [9]), the Total aerobic bacteria is 2×10^7 CFU/ml. In addition, the “spore formation in the broke sample” value in the experiment with aerobic spores (50 mg/l, 3 days of storage) was “not triggering any spore formation”. In addition, the Bacterial spores in the experiment with aerobic spores (setting [9]) turned out to be 80 CFU/ml.
